Data taken from PubChem BioAssay AID248 (DTP/NCI, 2004).
“And” between values parts separate entries of the source, which are not always exact repeats. Identical values can stand only once. Inconclusive results and toxic doses are left out. Rule as the data show it: active = T/C of 150% or more; inactive = T/C below 125%.

Tested on: L1210 leukemia ip in BDF1 mice, survival T/C
Experiment: NCI In Vivo Anticancer Drug Screen. Data for tumor model L1210 Leukemia (intraperitoneal) in B6D2F1 (BDF1) mice
Settings: endpoint: mean survival time, higher = longer survival
Method in brief: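 Value reflects the ratio of survival in compound-treated mice to survival in vehicle-treated controls, with both groups carrying the same transplanted tumor.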

[1] = dose: 100.0 mg/kg/injection, schedule: Q01DX001 (ip), vehicle: carboxymethylcellulose (CMC)
[2] = dose: 200.0 mg/kg/injection, schedule: Q01DX001 (ip), vehicle: carboxymethylcellulose (CMC)
[3] = dose: 400.0 mg/kg/injection, schedule: Q01DX001 (ip), vehicle: carboxymethylcellulose (CMC)
[4] = dose: 50.0 mg/kg/injection, schedule: Q04DX003 (ip), vehicle: Klucel (hydroxypropylcellulose) (HPC)
[5] = dose: 100.0 mg/kg/injection, schedule: Q01DX009 (ip), vehicle: saline
[6] = dose: 100.0 mg/kg/injection, schedule: Q04DX003 (ip), vehicle: Klucel (hydroxypropylcellulose) (HPC)
[7] = dose: 200.0 mg/kg/injection, schedule: Q01DX009 (ip), vehicle: saline
[8] = dose: 200.0 mg/kg/injection, schedule: Q04DX003 (ip), vehicle: Klucel (hydroxypropylcellulose) (HPC)
[9] = dose: 50.0 mg/kg/injection, schedule: Q01DX009 (ip), vehicle: saline
[10] = dose: 50.0 mg/kg/injection, schedule: Q04DX003 (ip), vehicle: saline
[11] = dose: 100.0 mg/kg/injection, schedule: Q04DX003 (ip), vehicle: saline
[12] = dose: 200.0 mg/kg/injection, schedule: Q04DX003 (ip), vehicle: saline
[13] = dose: 100.0 mg/kg/injection, schedule: Q01DX009 (ip), vehicle: saline with Tween-80
[14] = dose: 200.0 mg/kg/injection, schedule: Q01DX009 (ip), vehicle: saline with Tween-80
[15] = dose: 400.0 mg/kg/injection, schedule: Q01DX009 (ip), vehicle: saline with Tween-80
[16] = dose: 100.0 mg/kg/injection, schedule: Q01DX001 (ip), vehicle: saline
[17] = dose: 200.0 mg/kg/injection, schedule: Q01DX001 (ip), vehicle: saline
[18] = dose: 100.0 mg/kg/injection, schedule: Q01DX009 (ip), vehicle: Klucel (hydroxypropylcellulose) (HPC)
[19] = dose: 200.0 mg/kg/injection, schedule: Q01DX009 (ip), vehicle: Klucel (hydroxypropylcellulose) (HPC)
[20] = dose: 400.0 mg/kg/injection, schedule: Q01DX009 (ip), vehicle: Klucel (hydroxypropylcellulose) (HPC)
[21] = dose: 100.0 mg/kg/injection, schedule: Q01DX001 (ip), vehicle: Klucel (hydroxypropylcellulose) (HPC)
[22] = dose: 200.0 mg/kg/injection, schedule: Q01DX001 (ip), vehicle: Klucel (hydroxypropylcellulose) (HPC)
[23] = dose: 400.0 mg/kg/injection, schedule: Q01DX001 (ip), vehicle: Klucel (hydroxypropylcellulose) (HPC)
[24] = dose: 400.0 mg/kg/injection, schedule: Q04DX003 (ip), vehicle: saline
[25] = dose: 400.0 mg/kg/injection, schedule: Q01DX001 (ip), vehicle: saline
[26] = dose: 50.0 mg/kg/injection, schedule: Q01DX001 (ip), vehicle: saline
[27] = dose: 400.0 mg/kg/injection, schedule: Q01DX009 (ip), vehicle: saline

Measured: T/C

c1ccc(N2CNN(c3ccccc3)CN2)cc1
inactive: [1] 86 % of control | [2] 90 % of control | [3] 95 % of control

COC(=O)c1n[nH]c(C)c1N=NN1CCOCC1
inactive: dose: 75.0 mg/kg/injection, schedule: Q01DX001 (ip), vehicle: saline 105 % of control | dose: 150.0 mg/kg/injection, schedule: Q01DX001 (ip), vehicle: saline 103 % of control | dose: 300.0 mg/kg/injection, schedule: Q01DX001 (ip), vehicle: saline 105 % of control

O=C1COC(=O)CO1
inactive: [4] 104 % of control | [5] 86 % of control | [6] 100 % of control | [7] 86 % of control | [8] 96 % of control

NC(=O)/C=C\C(N)=O
inactive: [9] 103 % of control | [10] 100 % of control | [5] 99 % of control | [11] 104 % of control | [12] 99 % of control

Cc1ccc(S(=O)(=O)N2C(=O)CCC2C(=O)O)cc1 (stereo not drawn)
inactive: dose: 100.0 mg/kg/injection, schedule: Q01DX001 (ip), vehicle: saline with Tween-80 100 % of control | [13] 98 % of control | dose: 200.0 mg/kg/injection, schedule: Q01DX001 (ip), vehicle: saline with Tween-80 96 % of control | [14] 96 % of control | dose: 400.0 mg/kg/injection, schedule: Q01DX001 (ip), vehicle: saline with Tween-80 97 % of control | [15] 102 % of control

COc1ccc(N(C)CC(O)CN)cc1 (stereo not drawn)
inactive: [16] 108 % of control | [17] 104 % of control

CN(Cc1ccccc1Cl)C(=O)Nc1cccc(Cl)c1
inactive: [18] 97 % of control | [19] 103 % of control | [20] 114 % of control

COc1ccccc1NNS(=O)(=O)c1cccc([N+](=O)[O-])c1
inactive: dose: 75.0 mg/kg/injection, schedule: Q04DX003 (ip), vehicle: Klucel (hydroxypropylcellulose) (HPC) 104 % of control | [21] 100 % of control | dose: 150.0 mg/kg/injection, schedule: Q04DX003 (ip), vehicle: Klucel (hydroxypropylcellulose) (HPC) 94 % of control | [22] 103 % of control | dose: 300.0 mg/kg/injection, schedule: Q04DX003 (ip), vehicle: Klucel (hydroxypropylcellulose) (HPC) 104 % of control | [23] 105 % of control

Cc1cc(=O)c2cc(-c3ccccc3)ccc2[nH]1
inactive: [11] 100 % of control | [12] 92 % of control | [24] 90 % of control

O=C(Nc1ncn[nH]1)C(Cl)(Cl)Cl
inactive: dose: 100.0 mg/kg/injection, schedule: Q04DX003 (ip), vehicle: carboxymethylcellulose (CMC) 95 % of control | dose: 200.0 mg/kg/injection, schedule: Q04DX003 (ip), vehicle: carboxymethylcellulose (CMC) 100 % of control | dose: 400.0 mg/kg/injection, schedule: Q04DX003 (ip), vehicle: carboxymethylcellulose (CMC) 97 % of control

CCOC(=O)NP(=O)(NNc1ccccc1)NNc1ccccc1
inactive: dose: 50.0 mg/kg/injection, schedule: Q01DX001 (ip), vehicle: carboxymethylcellulose (CMC) 104 % of control | [1] 89 % of control | [2] 95 % of control | [3] 89 % of control

O=C(CCl)Nc1c(Cl)cc(Cl)cc1Cl
inactive: [4] 97 % of control | [21] 103 % of control | [6] 90 % of control | [22] 98 % of control | [8] 93 % of control | [23] 103 % of control

CCCCCCCCC/C(C)=C1/SC(=S)NC1=O
inactive: [16] 102 % of control | [5] 88 % of control | [17] 93 % of control | [25] 95 % of control

O=C1Nc2ccc3c4c(ccc1c24)CC3
inactive: [26] 104 % of control | [16] 95 % of control | [17] 98 % of control | [25] 98 % of control

CCCc1ccc(O)c(O)c1
inactive: dose: 20.0 mg/kg/injection, schedule: Q01DX001 (ip), vehicle: saline 103 % of control | dose: 20.0 mg/kg/injection, schedule: Q01DX009 (ip), vehicle: saline 105 % of control | dose: 40.0 mg/kg/injection, schedule: Q01DX001 (ip), vehicle: saline 96 % of control | dose: 40.0 mg/kg/injection, schedule: Q01DX009 (ip), vehicle: saline 93 % of control | dose: 80.0 mg/kg/injection, schedule: Q01DX001 (ip), vehicle: saline 92 % of control

CCN(CC)C(C)=O
inactive: [26] 87 % of control | [17] 86 % of control | [25] 86 % of control

COc1ccc2c(c1)CCC1=C2CCC(C)(C(=O)O)N1 (stereo not drawn)
inactive: [13] 98 % of control | [14] 95 % of control | [15] 87 % of control

O=C(Nc1ccc(NC(=O)/C(Cl)=C/Cl)c2c1C(=O)c1ccccc1C2=O)/C(Cl)=C/Cl
inactive: [1] 92 % of control | [2] 92 % of control | [3] 100 % of control

O=C(CN1C(=O)C2CCCCC2C1=O)N1CC1 (stereo not drawn)
inactive: [1] 110 % of control | [2] 103 % of control

CCOC(=O)CNC(=O)CBr
inactive: dose: 10.0 mg/kg/injection, schedule: Q01DX Z (ip), vehicle: other 103 % of control | dose: 20.0 mg/kg/injection, schedule: Q01DX Z (ip), vehicle: other 91 % of control

COc1ccc2c(c1)c(=O)c(C(=O)O)cn2CCCOc1ccc([N+](=O)[O-])cc1
inactive: [18] 96 % of control | [11] 107 % of control | [19] 106 % of control | [12] 100 % of control | [20] 93 % of control | [24] 94 % of control

O=C1OC(=O)C23CCC(CC2)C2CCC13CC2
inactive: [5] 97 % of control | [11] 110 % of control | [7] 98 % of control | [12] 110 % of control | [27] 93 % of control | [24] 109 % of control

CC#CCOCC1CN(C)C(=O)O1 (stereo not drawn)
inactive: dose: 25.0 mg/kg/injection, schedule: Q01DX009 (ip), vehicle: saline 95 % of control | [9] 98 % of control | [10] 106 % of control | [5] 92 % of control | [11] 101 % of control | [7] 90 % of control | [12] 104 % of control | [27] 95 % of control | [24] 101 % of control

CC(=O)N(C)c1cc(N)ccc1OCc1ccccc1
inactive: dose: 12.5 mg/kg/injection, schedule: Q04DX003 (ip), vehicle: saline with Tween-80 91 % of control | dose: 25.0 mg/kg/injection, schedule: Q01DX009 (ip), vehicle: saline with Tween-80 100 % of control | dose: 25.0 mg/kg/injection, schedule: Q04DX003 (ip), vehicle: saline with Tween-80 98 % of control and 101 % of control | dose: 50.0 mg/kg/injection, schedule: Q01DX009 (ip), vehicle: saline with Tween-80 96 % of control | dose: 50.0 mg/kg/injection, schedule: Q04DX003 (ip), vehicle: saline with Tween-80 95 % of control and 102 % of control | [13] 102 % of control | dose: 100.0 mg/kg/injection, schedule: Q04DX003 (ip), vehicle: saline with Tween-80 95 % of control and 113 % of control | dose: 200.0 mg/kg/injection, schedule: Q04DX003 (ip), vehicle: saline with Tween-80 97 % of control

COc1cc(N=Nc2ccc3c(c2)Cc2ccccc2-3)c(OC)cc1N
inactive: dose: 100.0 mg/kg/injection, schedule: Q01DX001 (ip), vehicle: other 111 % of control | dose: 200.0 mg/kg/injection, schedule: Q01DX001 (ip), vehicle: other 88 % of control | dose: 400.0 mg/kg/injection, schedule: Q01DX001 (ip), vehicle: other 105 % of control

O=C(O)c1ccc(NCc2cc(=O)[nH]c(=O)[nH]2)cc1
inactive: [11] 101 % of control | [12] 95 % of control | [24] 103 % of control

Cc1cc[c]([Hg][I])cc1
inactive: dose: 6.25 mg/kg/injection, schedule: Q01DX009 (ip), vehicle: Klucel (hydroxypropylcellulose) (HPC) 93 % of control | dose: 12.5 mg/kg/injection, schedule: Q01DX009 (ip), vehicle: Klucel (hydroxypropylcellulose) (HPC) 94 % of control | dose: 25.0 mg/kg/injection, schedule: Q04DX002 (ip), vehicle: Klucel (hydroxypropylcellulose) (HPC) 87 % of control
